Assay results published in patent US6617350B2, “Inhibitors of aspartyl protease” (priority 1999, dated 2003).
Where two headings read alike, the source gives them in different places.

Columns and labels:
HIV-1 protease = HIV-1 protease (Human immunodeficiency virus type 1 group M subtype B, UniProt P04585); experiment: biochemical
HIV-1 (strain IIIB) = experiment: microbe, parasite or virus in culture; format: cell-based; details: Human immunodeficiency virus 1, IIIB, MT4, Table 12; anti-viral potency in MT-4 cells; read-out: IC50
[1] = Table 12, HIV-1 protease, read-out: Ki

For `CO/N=C(\C)CCC(C)(C)CN(CC(O)[C@H](Cc1ccccc1)NC(=O)OC1COC2OCCC12)S(=O)(=O)c1ccc2c(c1)OCO2` (stereo partly drawn) [Compound 261, (3R,3aS,6aR)-Hexahydrofuro[2,3-b]furan-3-yl-N-((1S,2R)-1-benzyl-3-(2,2-dimethyl-5-methoxyiminohexyl)[(3,4-methylenedioxyphenyl)sulfonyl]amino-2-hydroxypropyl)carbamate], the Ki (HIV-1 protease; [1]) was under 1 nM and the IC50 (HIV-1 (strain IIIB)) was at most 100 nM.
In the case of `COc1ccc(S(=O)(=O)N(CC(O)C(Cc2ccccc2)NC(=O)OC2COC3OCCC23)CC(C)(C)CCCNC(=O)OC(C)C)cc1` [Compound 243, (3R,3aS,6aR)hexahydrofuro[2,3-b]furan-3-yl N-((1S,2R)-1-benzyl-2-hydroxy-3-5-[(isopropoxycarbonyl)amino]-2,2-dimethylpentyl[(4-methoxyphenyl)sulfonyl]aminopropyl)carbamate and (3S,3aR,6aS)hexahydrofuro[2,3-b]furan-3-yl N-((1S,2R)-1-benzyl-2-hydroxy-3-5-[(isopropoxycarbonyl)amino]-2,2-dimethylpentyl[(4-methoxyphenyl)sulfonyl]aminopropyl)carbamate], the Ki (HIV-1 protease) is reported as under 1 nM and the IC50 (HIV-1 (strain IIIB)) is reported as at most 100 nM.
Work on `CCC(CCC1(C)OCCO1)CN(C[C@@H](O)[C@H](Cc1ccccc1)NC(=O)OC(C)(C)C)S(=O)(=O)c1ccc(OC)cc1` (mixture of isomers) [Compound 202, tert-ButylN-((1S,2R)-1-benzyl-3-[2-ethyl-4-(2-methyl-1,3-dioxolan-2-yl)butyl][(4-methoxyphenyl)sulfonyl]amino-2-hydroxypropyl)carbamate] yielded a Ki (HIV-1 protease; [1]) of 1 to 10 nM and an IC50 (HIV-1 (strain IIIB)) of over 1000 nM.
`CC(C)(CCCCN)CN(CC(O)C(Cc1ccccc1)NC(=O)OC1COC2OCCC12)S(=O)(=O)c1ccc2c(c1)OCCO2` [Compound 245, (3R,3aS,6aR)hexahydrofuro[2,3-b]furan-3-yl N-(1S,2R)-3-[(6-amino-2,2-dimethylhexyl)(2,3-dihydro-1,4-benzodioxin-6-ylsulfonyl)amino]-1-benzyl-2-hydroxypropylcarbamate] was tested, and the Ki (HIV-1 protease; [1]) was under 1 nM and the IC50 (HIV-1 (strain IIIB)) was 100 to 500 nM.
Work on `CC(C)(CCCCNS(C)(=O)=O)CN(C[C@@H](O)[C@H](Cc1ccccc1)NC(=O)O[C@H]1CO[C@H]2OCC[C@H]21)S(=O)(=O)c1ccc2c(c1)OCO2` [Compound 255, (3R,3aS,6aR)hexahydrofuro[2,3-b]furan-3-yl N-[(1S,2R)-3-((1,3-benzodioxol-5-ylsulfonyl)2,2-dimethyl-6-[(methylsulfonyl)amino]hexylamino)-1-benzyl-2-hydroxypropyl]carbamate] yielded a Ki (HIV-1 protease; [1]) of under 1 nM and an IC50 (HIV-1 (strain IIIB)) of at most 100 nM.
`CNc1cccc(S(=O)(=O)N(C[C@@H](O)[C@H](Cc2ccccc2)NC(=O)O[C@H]2CO[C@H]3OCC[C@H]32)CC(C)(C)CCCNC(=O)N(C)C)c1` [Compound 267, (3R,3aS,6aR)hexahydrofuro[2,3-b]furan-3-yl N-[(1S,2R)-1-benzyl-3-((5-[(dimethylamino)carbonyl]amino-2,2-dimethylpentyl)[3-(methylamino)phenyl]sulfonylamino)-2-hydroxypropyl]carbamate] showed a Ki (HIV-1 protease; [1]) of under 1 nM and an IC50 (HIV-1 (strain IIIB)) of at most 100 nM.
In the case of `CC(C)(CCC#N)CN(C[C@@H](O)[C@H](Cc1ccccc1)NC(=O)OC1COCOC1)S(=O)(=O)c1ccc(OCc2ccccc2)cc1` [Compound 33, {(1S,2R)-1-Benzyl-3-[(4-cyano-2,2-dimethyl-butyl)-(4-benzyloxybenzenesulfonyl)-amino]-2-hydroxy-propyl}-carbamic acid[1,3]dioxan-5-yl ester], the Ki (HIV-1 protease; [1]) is reported as 10 to 100 nM and the IC50 (HIV-1 (strain IIIB)) is reported as 500 to 1000 nM.
`CNc1cccc(S(=O)(=O)N(C[C@@H](O)[C@H](Cc2ccccc2)NC(=O)O[C@H]2CO[C@H]3OCC[C@H]32)CC(C)(C)CCCNC(=O)OC)c1` [Compound 264, (3R,3aS,6aR)hexahydrofuro[2,3-b]furan-3-yl N-[(1S,2R)-1-benzyl-2-hydroxy-3-(5-[(methoxycarbonyl)amino]-2,2-dimethylpentyl[3-(methylamino)phenyl]sulfonylamino)propyl]carbamate] was tested, and the Ki (HIV-1 protease; [1]) was under 1 nM and the IC50 (HIV-1 (strain IIIB)) was at most 100 nM.
In the case of `CNC(=O)OCCCC(C)(C)CN(CC(O)[C@H](Cc1ccccc1)NC(=O)OC1COC2OCCC12)S(=O)(=O)c1ccc2c(c1)OCO2` (stereo partly drawn) [Compound 272, (3R,3aS,6aR)-Hexahydrofuro[2,3-b]furan-3-yl N-((1S,2R)-1-benzyl-3-[2,2-dimethyl-5-(N′-methylcarbamoyloxypentyl)][(3,4-methylenedioxyphenyl)sulfonyl]amino-2-hydroxypropyl)carbamate], the Ki (HIV-1 protease) is reported as under 1 nM and the IC50 (HIV-1 (strain IIIB)) is reported as at most 100 nM.
`CNC(=O)CNC(=O)NCCCC(C)(C)CN(CC(O)C(Cc1ccccc1)NC(=O)OC1COC2OCCC12)S(=O)(=O)c1ccc(OC)cc1` [Compound 225, (3R,3aS,6aR)hexahydrofuro[2,3-b]furan-3-yl N-(1S,2R)-1-benzyl-2-hydroxy-4-[(4-methoxyphenyl)sulfonyl]-6,6-dimethyl-11,14-dioxo-4,10,12,15-tetraazahexadec-1-ylcarbamate and (3S,3aR,6aS)hexahydrofuro[2,3-b]furan-3-yl N-(1S,2R)-1-benzyl-2-hydroxy-4-[(4-methoxyphenyl)sulfonyl]-6,6-dimethyl-11,14-dioxo-4,10,12,15-tetraazahexadec-1-ylcarbamate] gave a Ki (HIV-1 protease; [1]) of under 1 nM and an IC50 (HIV-1 (strain IIIB)) of over 1000 nM.
With `CC(C)(CCC#N)CN(C[C@@H](O)[C@H](Cc1ccccc1)NC(=O)OC1COCOC1)S(=O)(=O)c1ccc2c(c1)OCO2` [Compound 36, {(1S,2R)-3-[(Benzo[1,3]dioxole-5-sulfonyl)-(4-cyano-2,2-dimethyl-butyl)-amino]-1-benzyl-2-hydroxy-propyl}-carbamic acid[1,3]dioxan-5-yl ester] the Ki (HIV-1 protease; [1]) was under 1 nM and the IC50 (HIV-1 (strain IIIB)) was at most 100 nM.
`CNC(=O)OCCC(C)(C)CN(CC(O)[C@H](Cc1ccccc1)NC(=O)OC1COC2OCCC12)S(=O)(=O)c1ccc(OC)cc1` (stereo partly drawn) [Compound 221, (3R,3aS,6aR)-Hexahydrofuro[2,3-b]furan-3-yl N-((1S,2R)-1-benzyl-3-(2,2-dimethyl-4-N′-methylcarbamoyloxybutyl)[(4-methoxyphenyl)sulfonyl]amino-2-hydroxypropyl)carbamate] gave a Ki (HIV-1 protease; [1]) of under 1 nM and an IC50 (HIV-1 (strain IIIB)) of at most 100 nM.
In the case of `CC(C)(CCC#N)CN(C[C@@H](O)[C@H](Cc1ccccc1)NC(=O)OC(C)(C)C)S(=O)(=O)c1cccc(N)c1` [Compound 5, tert-ButylN-((1S,2R)-3-[(3-aminophenyl)sulfonyl](4-cyano-2,2-dimethylbutyl)amino-1-benzyl-2-hydroxypropyl)carbamate], the Ki (HIV-1 protease; [1]) is reported as under 1 nM and the IC50 (HIV-1 (strain IIIB)) is reported as over 1000 nM.
With `CC(C)(CCC#N)CN(CC(O)C(Cc1ccccc1)NC(=O)OC1COC2OCCC12)S(=O)(=O)c1ccc(OCc2ccccc2)cc1` [Compound 32, {(1S,2R)-3-[(4-benzyloxybenzenesulfonyl)-(4-cyano-2,2-dimethyl-butyl)-amino]-1-benzyl-2-hydroxy-propyl}-carbamic acid (2R,3aS,6aR)hexahydro-furo[2,3-b]furan-3-yl ester] the Ki (HIV-1 protease; [1]) was under 1 nM and the IC50 (HIV-1 (strain IIIB)) was 100 to 500 nM.
Work on `COc1ccc(S(=O)(=O)N(C[C@@H](O)[C@H](Cc2ccccc2)NC(=O)O[C@H]2CCOC2)CC(C)(C)CCCC#N)cc1` [Compound 18, (3S)-Tetrahydro-3-furanyl N-((1S,2R)-1-benzyl-3-(5-cyano-2,2-dimethylpentyl)[(4-methoxyphenyl)sulfonyl]amino-2-hydroxypropyl)carbamate] yielded a Ki (HIV-1 protease; [1]) of under 1 nM and an IC50 (HIV-1 (strain IIIB)) of 100 to 500 nM.
With `CC(C)(CCCNS(C)(=O)=O)CN(C[C@@H](O)[C@H](Cc1ccccc1)NC(=O)O[C@H]1CO[C@H]2OCC[C@H]21)S(=O)(=O)c1ccc2c(c1)OCO2` [Compound 269, (3R,3aS,6aR)hexahydrofuro[2,3-b]furan-3-yl N-[(1S,2R)-3-((1,3-benzodioxol-5-ylsulfonyl)2,2-dimethyl-5-[(methylsulfonyl)amino]pentylamino)-1-benzyl-2-hydroxypropyl]carbamate] the Ki (HIV-1 protease; [1]) was under 1 nM and the IC50 (HIV-1 (strain IIIB)) was at most 100 nM.
Compound `COc1ccc(S(=O)(=O)N(CC(O)C(Cc2ccccc2)NC(=O)OC2COC3OCCC23)CC(C)(C)CCCNC(=O)N2CCOCC2)cc1` [Compound 237, (3R,3aS,6aR)hexahydrofuro[2,3-b]furan-3-yl N-((1S,2R)-1-benzyl-3-2,2-dimethyl-5-[(morpholinocarbonyl)amino]pentyl[(4-methoxyphenyl)sulfonyl]amino-2-hydroxypropyl)carbamate and 3S,3aR,6aS)hexahydrofuro[2,3-b]furan-3-yl N-((1S,2R)-1-benzyl-3-2,2-dimethyl-5-[(morpholinocarbonyl)amino]pentyl[(4-methoxyphenyl)sulfonyl]amino-2-hydroxypropyl)carbamate] has a Ki (HIV-1 protease; [1]) of under 1 nM and an IC50 (HIV-1 (strain IIIB)) of at most 100 nM.
With `CC(=O)Nc1cc(S(=O)(=O)N(C[C@@H](O)[C@H](Cc2ccccc2)NC(=O)O[C@H]2CO[C@H]3OCC[C@H]32)CC(C)(C)CCC#N)ccc1F` [Compound 30, {(1S,2R)-3-[(3-Acetylamino-4-fluoro-benzenesulfonyl)-(4-cyano-2,2-dimethyl-butyl)-amino]-1-benzyl-2-hydroxy-propyl}-carbamic acid (3R,3aS,6aR)hexahydro-furo[2,3-b]furan-3-yl ester] the Ki (HIV-1 protease; [1]) was under 1 nM and the IC50 (HIV-1 (strain IIIB)) was at most 100 nM.
Work on `CN(C)C(=O)NCCCC(C)(C)CN(CC(O)C(Cc1ccccc1)NC(=O)OC1COC2OCCC12)S(=O)(=O)c1ccc2c(c1)OCCO2` [Compound 268, (3R,3aS,6aR)hexahydrofuro[2,3-b]furan-3-yl N-(1S,2R)-1-benzyl-3-[(2,3-dihydro-1,4-benzodioxin-6-ylsulfonyl)(5-[(dimethylamino)carbonyl]amino-2,2-dimethylpentyl)amino]-2-hydroxypropylcarbamate] yielded a Ki (HIV-1 protease; [1]) of under 1 nM and an IC50 (HIV-1 (strain IIIB)) of at most 100 nM.
